*1 amine or outer side, *2 acyl side, *3 side chain or, on linkers, in order; H or OH if unused. Where a SMILES comes first, the peptide text is derived from it. Bridges are numbered along the chain shown (N, C = ends). The star is where a group is joined. C20 diacid = O=C(O)CCCCCCCCCCCCCCCCCCC(=O)*; γGlu = O=C(O)[C@H](CCC(=O)[*:2])N[*:1]
Tests used:
[1] = Assay (V) PK - determination of T½ in mini-pig; type: in vivo; settings: minipig, sc; terminal plasma half-life, subcutaneous, approx 2 nmol/kg, male Göttingen mini-pigs
How it was run: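 Male Göttingen mini-pigs (5–12 months, 7–35 kg) got a single s.c. neck injection of approx 2 nmol/kg; plasma sampled via central venous catheter predose to 240 h (some to 288 h). Amylin measured by sandwich ELISA; T½ = ln 2/λz from non-compartmental analysis of individual profiles.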

food intake = assay: Pharmacological Assay (I) - efficacy testing on appetite, ad libitum fed rat model; type: in vivo, Sprague Dawley (SD) rats; settings: 30 nmol/kg vs vehicle, ad libitum fed rats, n=5-7, 0-48 hours
From the text: Assays Pharmacological Assay (I)—Experimental Protocol for Efficacy Testing on Appetite with an Amylin Derivative, Using an Ad Libitum Fed Rat Model. Sprague Dawley (SD) rats from Taconic Europe, Denmark are used for the experiments. The rats have a body weight 200-250 g at the start of experiment. The rats arrive at least 10-14 days before start of experiment to allow acclimatization to experimental settings. During this period the animals are handled at least 2 times. After arrival rats are housed individually for one week in a reversed light/dark phase (meaning that lights are off during daytime and on during nighttime) for two weeks. Since rats are normally active and eat their major part of their daily food intake during the dark period, rats are dosed in the morning right before lights are turned off. This set-up results in the lowest data variation and highest test sensitivity. The experiment is conducted in the rats' home cages and rats have free access to food and water throughout the acclimatization period and the experiment period. Each dose of derivative is tested in a group of 5-8 rats. A vehicle group of 6-8 rats is included in each set of testing. Rats are dosed once according to body weight with a 0.01-3 mg/kg solution administered intraperitoneally (ip), orally (po) or subcutaneously (sc). The time of dosing is recorded for each group. After dosing, the rats are returned to their home cages, where they then have access to food and water. The food consumption is recorded individually continuously by on-line registration or manually every hour for 7 hours, and then after 24 h and sometimes 48 h. At the end of the experimental session, the animals are euthanized. The individual data are recorded in Microsoft excel sheets. Outliers are excluded after applying the Grubbs statistical evaluation test for outliers, and the result is presented graphically using the GraphPad Prism program.

CC[C@H](C)[C@H](NC(=O)[C@@H]1CCCN1C(=O)CNC(=O)[C@H](Cc1ccccc1)NC(=O)[C@H](CC(N)=O)NC(=O)[C@H](CC(N)=O)NC(=O)[C@H](CO)NC(=O)[C@H](CO)NC(=O)[C@H](Cc1c[nH]cn1)NC(=O)[C@H](Cc1c[nH]cn1)NC(=O)[C@H](CC(C)C)NC(=O)[C@H](Cc1ccccc1)NC(=O)[C@H](CC(N)=O)NC(=O)[C@H](C)NC(=O)[C@H](CC(C)C)NC(=O)[C@H](CCCNC(=N)N)NC(=O)[C@H](CCC(N)=O)NC(=O)[C@@H](NC(=O)[C@H](C)NC(=O)[C@@H]1CSSC[C@H](NC(=O)[C@H](Cc2c[nH]cn2)NC(=O)[C@H](Cc2c[nH]cn2)NC(=O)[C@H](Cc2c[nH]cn2)NC(=O)CC[C@H](NC(=O)CCCCCCCCCCCCCCCCCCC(=O)O)C(=O)O)C(=O)N[C@@H](CC(N)=O)C(=O)N[C@@H]([C@@H](C)O)C(=O)N[C@@H](C)C(=O)N[C@@H]([C@@H](C)O)C(=O)N1)[C@@H](C)O)C(=O)N[C@@H](CC(C)C)C(=O)N1CCC[C@H]1C(=O)N1CCC[C@H]1C(=O)N[C@H](C(=O)N[C@@H](CC(N)=O)C(=O)N[C@H](C(=O)NCC(=O)N[C@@H](CO)C(=O)N[C@@H](CC(N)=O)C(=O)N[C@H](C(=O)N[C@@H](Cc1ccc(O)cc1)C(N)=O)[C@@H](C)O)C(C)C)[C@@H](C)O [Example 39, N-alpha-[(S)-4-Carboxy-4-(19-carboxynonadecanoylamino)butyryl]-His-His-[His1,His17]-pramlintide] ({C20 diacid-γGlu}-HHHCNTATCATQRLANFLHHSSNNFGPILPPTNVGSNTY-NH2; disulfide 4-9)
half-life [1]: 60 h | food intake over a period of 48 hours (food intake): effectively reducing food intake
